Assay: refractive index (Na D-line) (dimensionless); xn = mol fraction of the nth substance listed
Conditions: 100.8 kPa, Liquid, Standard Abbe refractometry

CC(=O)OCc1ccccc1 [benzyl ethanoate] + CCO
refractive index
Conditions | 293.15 K | 303.15 K | 313.15 K | 323.15 K
x2 = 0 | 1.50245 | 1.49776 | 1.49309 | 1.48834
x2 = 0.0502 | 1.49958 | 1.49479 | 1.49006 | 1.48521
x2 = 0.1 | 1.49646 | 1.49168 | 1.48693 | 1.48205
x2 = 0.1498 | 1.49316 | 1.48838 | 1.48362 | 1.47874
x2 = 0.1998 | 1.48968 | 1.48491 | 1.48007 | 1.47517
x2 = 0.2499 | 1.48589 | 1.48118 | 1.47629 | 1.47143
x2 = 0.2998 | 1.4819 | 1.47715 | 1.47228 | 1.46739
x2 = 0.35 | 1.4776 | 1.47284 | 1.46794 | 1.46309
x2 = 0.4 | 1.47289 | 1.46818 | 1.46327 | 1.45847
x2 = 0.4501 | 1.46787 | 1.46316 | 1.45826 | 1.45346
x2 = 0.5 | 1.46245 | 1.45772 | 1.45286 | 1.44807
x2 = 0.5499 | 1.45652 | 1.45179 | 1.44703 | 1.44215
x2 = 0.6 | 1.44996 | 1.44531 | 1.44052 | 1.43561
x2 = 0.65 | 1.44279 | 1.43815 | 1.43339 | 1.42851
x2 = 0.7 | 1.43481 | 1.43018 | 1.42552 | 1.42067
x2 = 0.7499 | 1.42603 | 1.42142 | 1.41682 | 1.41198
x2 = 0.7999 | 1.41623 | 1.41163 | 1.40711 | 1.40231
x2 = 0.85 | 1.40518 | 1.40062 | 1.39617 | 1.39132
x2 = 0.9 | 1.39263 | 1.38811 | 1.38375 | 1.37895
x2 = 0.95 | 1.3782 | 1.37384 | 1.36951 | 1.36489

OCc1ccccc1 [benzenemethanol] + CCO
refractive index
Conditions | 293.15 K | 303.15 K | 313.15 K | 323.15 K
x2 = 0 | 1.54049 | 1.53635 | 1.53215 | 1.52796
x2 = 0.05 | 1.53607 | 1.53175 | 1.52743 | 1.52308
x2 = 0.1 | 1.53119 | 1.52681 | 1.5225 | 1.51807
x2 = 0.1504 | 1.52584 | 1.5215 | 1.51718 | 1.51273
x2 = 0.1999 | 1.52041 | 1.51591 | 1.51156 | 1.50721
x2 = 0.2502 | 1.51444 | 1.51002 | 1.5056 | 1.50123
x2 = 0.3003 | 1.50804 | 1.50367 | 1.49935 | 1.49494
x2 = 0.3499 | 1.50154 | 1.49716 | 1.49265 | 1.48825
x2 = 0.3998 | 1.49454 | 1.49014 | 1.48568 | 1.48127
x2 = 0.45 | 1.48707 | 1.4826 | 1.47818 | 1.47378
x2 = 0.5001 | 1.4791 | 1.47469 | 1.4703 | 1.46589
x2 = 0.55 | 1.47074 | 1.46632 | 1.46191 | 1.45755
x2 = 0.5999 | 1.46176 | 1.45731 | 1.45296 | 1.44855
x2 = 0.65 | 1.4522 | 1.4477 | 1.44333 | 1.43892
x2 = 0.6997 | 1.44199 | 1.43754 | 1.43309 | 1.4287
x2 = 0.75 | 1.43095 | 1.42651 | 1.42212 | 1.41775
x2 = 0.7999 | 1.41922 | 1.41479 | 1.4104 | 1.40607
x2 = 0.8496 | 1.40661 | 1.40202 | 1.39761 | 1.39329
x2 = 0.8998 | 1.39275 | 1.38825 | 1.38389 | 1.37963
x2 = 0.95 | 1.37776 | 1.37331 | 1.36905 | 1.36475
